# Laboratory results: DBAASP
# Values joined by “and” are separate entries in the source; they are usually repeats but may differ in a detail not shown here. Equal entries are not always repeated.
# What was measured:
# Assay in all cases: ≥ marks a high value that may be exact or a test limit, other limits are often not marked, values filed in µg/mL are converted to µM
# Streptococcus equinus = tested on: Streptococcus equinus
# [1] = tested on: Salmonella enterica subsp. enterica serovar Typhimurium ATCC 14028
# [2] = tested on: Klebsiella pneumoniae ATCC 13883
# [3] = tested on: Salmonella enterica subsp. enterica serovar Enteritidis
# Cryptococcus neoformans = tested on: Cryptococcus neoformans
# Bacillus megaterium Bm11 = tested on: Bacillus megaterium Bm11
# Klebsiella pneumoniae = tested on: Klebsiella pneumoniae
# [4] = tested on: Cryptococcus neoformans ATCC 90113
# [5] = tested on: Pseudomonas aeruginosa ATCC 10145
# Candida parapsilosis = tested on: Candida parapsilosis
# Escherichia coli ML-35 = tested on: Escherichia coli ML-35
# [6] = tested on: Salmonella enterica serovar Typhimurium
# [7] = tested on: Cryptococcus neoformans ATCC 52817
# Candida albicans = tested on: Candida albicans
# [8] = tested on: Escherichia coli ATCC 25922
# Pseudomonas aeruginosa = tested on: Pseudomonas aeruginosa
# [9] = tested on: Staphylococcus aureus ATCC 25923
# [10] = tested on: Serratia marcescens ATCC 8100
# [11] = tested on: Staphylococcus aureus ATCC 29213
# [12] = tested on: Staphylococcus epidermidis ATCC 12228
# Candida tropicalis = tested on: Candida tropicalis
# [13] = tested on: Pseudomonas aeruginosa ATCC 27853
# Escherichia coli = tested on: Escherichia coli
# [14] = tested on: Pseudomonas aeruginosa K799
# [15] = tested on: Pseudomonas aeruginosa H374
# [16] = tested on: Salmonella enterica subsp. enterica serovar Typhimurium ATCC 14028s
# [17] = tested on: Pseudomonas aeruginosa H744
# Escherichia coli UB1005 = tested on: Escherichia coli UB1005
# [18] = tested on: Pseudomonas aeruginosa Z61
# [19] = tested on: Burkholderia cepacia ATCC 25416
# [20] = tested on: Pseudomonas aeruginosa H547
smiles,measurement,setting,value
CC[C@H](C)[C@H](NC(=O)[C@H](CCCCN)NC(=O)[C@H](CCCN=C(N)N)NC(=O)[C@H](CCCN=C(N)N)NC(=O)[C@@H]1CCCN1C(=O)[C@H](CC(C)C)NC(=O)[C@H](CC(C)C)NC(=O)[C@@H](NC(=O)[C@H](CCCN=C(N)N)NC(=O)[C@H](CCSC)NC(=O)[C@H](CCCN=C(N)N)NC(=O)[C@H](CC(C)C)NC(=O)[C@H](Cc1ccccc1)NC(=O)[C@H](CO)NC(=O)[C@H](CCCCN)NC(=O)[C@H](C)NC(=O)[C@H](CC(C)C)NC(=O)[C@H](CCCN=C(N)N)NC(=O)CNC(=O)[C@H](Cc1ccccc1)NC(=O)[C@H](CCCN=C(N)N)NC(=O)[C@@H](N)CCCCN)[C@@H](C)CC)C(=O)N[C@@H](CC(C)C)C(=O)N[C@@H](CC(C)C)C(=O)N[C@@H](C)C(=O)N[C@@H](CO)C(=O)O [KRFGRLAKSFLRMRILLPRRKILLAS],MIC,Streptococcus equinus,7.96 µM
same,MIC,[1],1.91 µM and 0.637 µM
same,MIC,[2],0.78 µM
same,MIC,[3],1.91 µM
same,MIC,Cryptococcus neoformans,1.91 µM and 3.98 µM
same,MIC,Bacillus megaterium Bm11,3.98 µM
same,MIC,Klebsiella pneumoniae,1.91 µM and 0.9 µM
same,MIC,[4],3.98 µM and 1.91 µM
same,MIC,[5],1.27 µM
same,MIC,Candida parapsilosis,31.8 µM
same,MIC,Escherichia coli ML-35,0.955 µM
same,MIC,[6],0.9 µM
same,MIC,[7],3.98 µM and 1.91 µM
same,MIC,Candida albicans,> 31.8 µM
same,MIC,[8],1.1 µM
same,MIC,Pseudomonas aeruginosa,0.9 µM
same,MIC,[9],7.96 µM
same,MIC,[10],3.98 µM
same,MIC,[11],> 10.2 µM
same,MIC,[12],1.91 µM
same,MIC,Candida tropicalis,31.8 µM
same,MIC,[13],3.98 µM
same,MIC,Escherichia coli,1.27 µM
CC[C@H](C)[C@H](NC(=O)[C@H](CC(C)C)NC(=O)[C@@H]1CCCN1C(=O)[C@H](CCCCN)NC(=O)[C@H](C)NC(=O)[C@@H](NC(=O)[C@@H](NC(=O)[C@@H](NC(=O)[C@@H](NC(=O)[C@H](CCCCN)NC(=O)[C@H](CCCCN)NC(=O)[C@H](CC(C)C)NC(=O)[C@@H](NC(=O)[C@H](CO)NC(=O)[C@@H](NC(=O)[C@H](CC(C)C)NC(=O)[C@H](CCCCN)NC(=O)[C@H](CCCCN)NC(=O)[C@@H](NC(=O)[C@H](Cc1ccccc1)NC(=O)[C@H](CO)NC(=O)[C@H](CCCCN)NC(=O)[C@H](Cc1c[nH]c2ccccc12)NC(=O)[C@@H](N)CCCCN)[C@@H](C)CC)[C@@H](C)O)C(C)C)C(C)C)C(C)C)[C@@H](C)O)[C@@H](C)O)C(=O)N[C@@H](CO)C(=O)N[C@@H](CO)C(=O)O [KWKSFIKKLTSVLKKVVTTAKPLISS],MIC,[14],1.71 µM
same,MIC,[15],2.73 µM
same,MIC,[16],1.02 µM
same,MIC,[17],1.36 µM
same,MIC,Escherichia coli UB1005,0.682 µM
same,MIC,[18],1.02 µM
same,MIC,[19],21.8 µM
same,MIC,[13],4 µM
same,MIC,[20],2.73 µM
